Laboratory results published in patent US20250235456A1, “METHODS OF USE FOR AZA-QUINAZOLINE COMPOUNDS” (Iambic Therapeutics, Inc., priority 2024, published 2025).
Read-outs that look alike come from different tables or passages of the source.

Key:
CDK1/Cyclin B1 = CDK1/Cyclin B1 (Homo sapiens (Human), UniProt P06493); assay: CDK1/Cyclin B1 ADP-Glo Kinase Assay; format: biochemical
Summary of the method: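 Purchased CDK1/Cyclin B1 was pre-incubated 30 min with inhibitor at room temperature, then reacted 90 min at room temperature after adding ATP-containing substrate. ADP formed was read by two-step ADP-Glo luminescence. IC50 came from a 4-parameter fit of fractional velocity versus inhibitor concentration.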

CDK4/Cyclin D1 [1] = biological target: T1, CDK4/Cyclin D1 (Homo sapiens (Human), UniProt P11802); assay: CDK4/Cyclin D1 Mobility Shift Assay (MSA); format: biochemical; details: read-out: CDK4/CyclinD1 MSA IC50
T1 sequence (P11802 whole entry, species assumed): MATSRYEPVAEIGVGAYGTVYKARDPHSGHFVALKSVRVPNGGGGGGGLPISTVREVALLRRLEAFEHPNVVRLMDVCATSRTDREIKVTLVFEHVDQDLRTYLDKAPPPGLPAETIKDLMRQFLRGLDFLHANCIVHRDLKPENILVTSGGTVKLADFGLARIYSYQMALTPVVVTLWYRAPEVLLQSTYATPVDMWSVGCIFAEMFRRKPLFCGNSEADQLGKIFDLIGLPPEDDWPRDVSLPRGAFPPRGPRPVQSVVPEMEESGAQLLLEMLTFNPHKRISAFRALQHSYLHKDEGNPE
T1 sequence (P24385 whole entry partner, species assumed): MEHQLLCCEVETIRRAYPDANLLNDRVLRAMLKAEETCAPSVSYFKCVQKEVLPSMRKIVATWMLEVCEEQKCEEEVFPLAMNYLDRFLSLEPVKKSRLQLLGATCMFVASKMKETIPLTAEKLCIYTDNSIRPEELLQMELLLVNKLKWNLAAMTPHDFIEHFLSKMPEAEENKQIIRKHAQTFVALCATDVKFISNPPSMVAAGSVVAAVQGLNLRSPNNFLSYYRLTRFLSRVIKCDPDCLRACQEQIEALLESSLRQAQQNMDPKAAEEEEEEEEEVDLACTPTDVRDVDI
Excerpt: CDK4/Cyclin D1 Mobility Shift Assay (MSA) The purpose CDK4/Cyclin D1 assay is to evaluate the inhibition (% inhibition and IC50 values) in the presence of small molecule inhibitors by using a fluorescence based microfluidic mobility shift assay. CDK4/Cyclin D1 catalyzes the production of ADP from ATP that accompanies the phosphoryl transfer to the substrate peptide 5-FAM-Dyrktide (5-FAM-[…]) (Perkin Elmer Peptide 34). The mobility shift assay (MSA) electrophoretically separates the fluorescently labelled peptides (substrate and phosphorylated product) following the kinase reaction. Both substrate and product are measured, and the ratio of these values is used to generate % conversion of substrate to product by the LabChip EZ Reader. Typical reaction solutions contained 2% DMSO (+/−inhibitor), 10 mM MgCl2, 1 mM EGTA, 0.05% BSA, 2 mM DTT, 0.2 mM ATP, 0.01% Brig-35, 1.5 uM 5-FAM-Dyrktide, 2.5 nM CDK4/Cyclin D1 in 50 mM HEPES buffer at pH 7.5. The reaction was initiated with the addition of substrate solution, following a 30-minute pre-incubation of enzyme and inhibitor at 22° C. in the reaction mix. The reaction was stopped after 180 minutes by the addition of 75 μL of 500 mM EDTA and measured on a Perkin Elmer EZ reader instrument. IC50 determinations were made from a plot of the fractional velocity as a function of inhibitor concentration fit to the 4 parameters IC50 equation.

CDK6/Cyclin D3 = CDK6/Cyclin D3 (Homo sapiens (Human), UniProt Q00534); assay: CDK6/Cyclin D3 ADP-Glo Kinase Assay; format: biochemical; details: read-out: CDK6/CyclinD3 IC50
CDK6/Cyclin D3, sequence (Q00534 whole entry): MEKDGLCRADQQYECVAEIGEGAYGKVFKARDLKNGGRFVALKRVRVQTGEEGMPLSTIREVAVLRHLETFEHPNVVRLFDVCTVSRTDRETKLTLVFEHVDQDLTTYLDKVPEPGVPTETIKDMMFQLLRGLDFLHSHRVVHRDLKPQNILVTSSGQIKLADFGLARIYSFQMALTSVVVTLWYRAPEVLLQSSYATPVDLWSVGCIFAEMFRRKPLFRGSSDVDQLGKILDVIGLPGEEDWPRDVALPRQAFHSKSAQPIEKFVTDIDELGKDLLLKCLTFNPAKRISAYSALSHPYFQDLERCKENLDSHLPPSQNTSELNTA
CDK6/Cyclin D3, sequence (P30281 whole entry partner): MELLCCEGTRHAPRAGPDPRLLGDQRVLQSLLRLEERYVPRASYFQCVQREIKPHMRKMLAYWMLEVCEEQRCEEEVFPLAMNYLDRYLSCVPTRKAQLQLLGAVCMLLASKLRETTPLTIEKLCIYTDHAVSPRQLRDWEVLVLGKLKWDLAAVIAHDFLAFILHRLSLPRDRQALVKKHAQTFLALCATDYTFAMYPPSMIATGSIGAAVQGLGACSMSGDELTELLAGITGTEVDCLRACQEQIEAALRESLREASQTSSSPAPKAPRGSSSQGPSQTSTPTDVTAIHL
Summary of the method: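 Commercial CDK6/Cyclin D3 pre-incubated with inhibitor 30 min at room temperature, then reaction started with ATP/substrate and run 90 min at room temperature. ADP formed measured by ADP-Glo luminescence; IC50 from fractional velocity vs inhibitor concentration fit to a 4-parameter equation.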

[2] = biological target: CDK2/Cyclin E1 full length (Homo sapiens (Human), UniProt P24941); assay: CDK2/Cyclin E1 Full length ADP-Glo Kinase Assay; format: biochemical; details: read-out: CDK2/CyclinE1 IC50
Experimental: CDK2/Cyclin E1 Full length ADP-Glo Kinase Assay
The purpose of CDK2/Cyclin El assay is to evaluate the inhibition (% inhibition and IC50 values) of small molecule inhibitors by using a Luminescent based ADP-Glo assay. CDK2/Cyclin El full length catalyzes the production of ADP from ATP. ADP-Glo assay monitors ADP producing biochemical reactions. ADP-Glo is performed in 2 steps upon completion of kinase reaction: a combined termination of kinase reaction and depletion of remaining ATP in the first step, and conversion of generated ADP to ATP and the newly produced ATP to light output using luciferase/luciferin reaction in the second step. The luminescent signal generated is proportional to the ADP concentration produced and is correlated with the kinase activity. CDK2/Cyclin E1 was purchased from Eurofins (Cat 14-475M). […] The assay was initiated with the addition of ATP-containing substrate solution, following a 30-minute pre-incubation of enzyme and inhibitor at room temperature in the reaction mixture. The reaction was stopped after 90 minutes at room temperature by the addition of 10 μL of ADP-GLO Reagent. After a 90 minute incubation, 20 uL of Kinase Detection Reagent was added. Samples were incubated for 40 minutes, after which plate well luminescence was measured on a Envision microplate reader. The IC50 determinations were made from a plot of the fractional velocity as a function of inhibitor concentration fit to the 4 parameters IC50 equation.

OVCAR-3 cells = assay: Cell Growth Inhibition, OVCAR-3 (CellTiterGlo, 6 days); format: cell-based
Excerpt: (§1) MCF-7 and OVCAR-3 cells were used to evaluate the anti-proliferation activity of the CDK inhibitors. MCF-7 (ATCC, HTB-22) cells are epithelial cells from a patient with ER+ metastatic adenocarcinoma. OVCAR-3 (ATCC, HTB-161) cells were derived from malignant ascites of a patient with ovarian cancer and are known to have CCNE1 amplification. Both cell lines were maintained in RPMI media supplemented with 10% fetal bovine serum. For cell growth inhibition assay, CDK inhibitors in DMSO solution were dispensed with either Echo 655 (Beckman Coulter) or Tecan D300e (TIP) into 384-well plates (Corning #3765) and the 384-well plates were UV-sterilized prior to the assay. The inhibitors were typically tested in the 10-10,000 nM concentration range with half-log serial dilutions. MCF-7 or OVCAR-3 (500 cells/30 μL/well) were added to each well using Multidrop Combi (ThermoFisher) using standard cassettes. The assay plates with cells were cultured at 37° C., 5% CO2 for 6 days. At the end of the 6-day treatment, 30 μL of CellTiterGlo 2.0 (Promega) was added to each well and the luminescent signal was read using CLARIOstar plus (BMG). The percentage of cell growth inhibition (% CGI) was calculated using the following formula % CGI=100-100×luminescencesample/luminescenecontrol. The half maximal inhibitory concentration (IC50) was determined by nonlinear curve fitting (four parameters, variable slope).

CDK4/Cyclin D1 [3] = biological target: T1, CDK4/Cyclin D1; assay: CDK4/Cyclin D1 CHEF Assay; format: biochemical; details: AQT; read-out: CDK4/CyclinD1 AQT IC50
Summary of the method: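 Peptide substrate AQT0258 carries a Sox fluorophore whose Mg(II)-dependent fluorescence (ex 360/em 485 nm) rises on phosphorylation. Enzyme and inhibitor pre-incubated 30 min at 22 °C, substrate added, reaction run 3 h at 22 °C. IC50 from 4-parameter fit of fractional velocity vs inhibitor concentration.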

MCF-7 cells = assay: Cell Growth Inhibition, MCF-7 (CellTiterGlo, 6 days); format: cell-based
Excerpt: as §1

CDK1/Cyclin B1, sequence (P06493 whole entry): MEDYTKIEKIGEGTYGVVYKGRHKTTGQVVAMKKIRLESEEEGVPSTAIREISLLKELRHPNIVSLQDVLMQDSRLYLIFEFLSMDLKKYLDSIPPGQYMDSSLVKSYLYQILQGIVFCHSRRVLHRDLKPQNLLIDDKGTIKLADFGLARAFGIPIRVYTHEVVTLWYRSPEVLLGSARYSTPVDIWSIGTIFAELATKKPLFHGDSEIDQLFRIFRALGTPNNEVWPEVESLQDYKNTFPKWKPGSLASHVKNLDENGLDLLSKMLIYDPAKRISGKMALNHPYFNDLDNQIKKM
CDK1/Cyclin B1, sequence (P14635 whole entry partner): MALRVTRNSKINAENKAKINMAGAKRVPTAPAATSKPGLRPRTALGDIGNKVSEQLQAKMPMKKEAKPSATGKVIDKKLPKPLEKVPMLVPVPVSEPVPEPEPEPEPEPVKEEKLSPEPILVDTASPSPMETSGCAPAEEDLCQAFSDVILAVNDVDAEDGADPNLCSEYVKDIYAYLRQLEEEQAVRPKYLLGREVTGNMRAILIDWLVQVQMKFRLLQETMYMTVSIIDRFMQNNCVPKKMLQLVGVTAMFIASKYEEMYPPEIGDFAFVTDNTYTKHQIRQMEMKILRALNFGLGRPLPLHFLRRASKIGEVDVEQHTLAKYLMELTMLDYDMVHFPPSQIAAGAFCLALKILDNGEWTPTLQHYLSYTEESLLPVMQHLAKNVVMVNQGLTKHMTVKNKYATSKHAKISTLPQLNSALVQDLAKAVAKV

Compound	IC50 (CDK1/Cyclin B1) [nM]	IC50 (CDK4/Cyclin D1 [1]) [nM]	IC50 (CDK6/Cyclin D3) [nM]	IC50 [2] [nM]	IC50 (OVCAR-3 cells; Homo sapiens, 144 h) [nM]	IC50 (CDK4/Cyclin D1 [3]) [nM]	IC50 (MCF-7 cells; Homo sapiens, MCF7, 144 h) [nM]	IC50 (OVCAR-3 cells) [nM]	IC50 (MCF-7 cells) [nM]
CCN1CC2(C1)CN(c1ccc(Nc3ncc4ccnc(N5CCC6(C5)CC(F)(F)C6)c4n3)nc1)C2 [Example 6, 8-(2,2-difluoro-6-azaspiro[3.4]octan-6-yl)-N-(5-(6-ethyl-2,6-diazaspiro[3.3]heptan-2-yl)pyridin-2-yl)pyrido[3,4-d]pyrimidin-2-amine]	> 2000	< 200	< 200	–	–	–	–	–	–
CS(=O)(=O)N1CCC(Nc2ncc3ccnc(N4CCC5(C4)CC5(F)F)c3n2)CC1 (stereo not shown) [Compound 3, 8-(1,1-difluoro-5-azaspiro[2.4]heptan-5-yl)-N-(1-(methylsulfonyl)piperidin-4-yl)pyrido[3,4-d]pyrimidin-2-amine]	< 200	< 200	< 200	–	–	–	–	–	–
CS(=O)(=O)N1CCC(Nc2ncc3ccnc(N4C[C@H]5c6ccccc6S(=O)(=O)[C@H]5C4)c3n2)CC1 [Compound 16, (3aR,8bR)-2-(2-((1-(methylsulfonyl)piperidin-4-yl)amino)pyrido[3,4-d]pyrimidin-8-yl)-2,3,3a,8b-tetrahydro-1H-benzo[4,5]thieno [2,3-c]pyrrole 4,4-dioxide]	< 200	< 200	< 200	< 200	–	–	–	–	–
CN1C[C@@H]2[C@H](C1)[C@H]2Nc1ncc2ccnc(N3CCC4(C3)CC4(F)F)c2n1 (stereo partly drawn) [Compound 17, 8-(1,1-difluoro-5-azaspiro[2.4]heptan-5-yl)-N-((1R,5S,6s)-3-methyl-3-azabicyclo[3.1.0]hexan-6-yl) pyrido[3,4-d]pyrimidin-2-amine]	–	< 200	200 to 500	200 to 500	–	–	–	–	–
CS(=O)(=O)N1CCC(Nc2ncc3ccnc(N4CCC5(CCOCC5)C4)c3n2)CC1 [Compound 7, N-(1-(methylsulfonyl)piperidin-4-yl)-8-(8-oxa-2-azaspiro[4.5]decan-2-yl)pyrido[3,4-d]pyrimidin-2-amine]	200 to 500	< 200	< 200	–	–	–	–	–	–
Cc1cc2cnc(NC3CCN(S(C)(=O)=O)CC3)nc2c(C2CC(O)(C(F)F)C2)n1 (stereo not shown) [Compound 93, 1-(difluoromethyl)-3-(6-methyl-2-((1-(methylsulfonyl)piperidin-4-yl)amino)pyrido[3,4-d]pyrimidin-8-yl)cyclobutan-1-ol]	< 200	–	< 200	–	500 to 2000	< 200	500 to 2000	–	–
CN1CCn2nc(Nc3ncc4ccnc(N5CCC6(C5)CC6(F)F)c4n3)cc2C1 (stereo not shown) [Compound 10, 8-(1,1-difluoro-5-azaspiro[2.4]heptan-5-yl)-N-(5-methyl-4,5,6,7-tetrahydropyrazolo [1,5-a]pyrazin-2-yl)pyrido[3,4-d]pyrimidin-2-amine]	> 2000	< 200	< 200	–	–	–	–	–	–
CCN1CC2(C1)CN(c1ccc(Nc3ncc4ccnc(N5CCC6(C5)CC6(F)F)c4n3)nc1)C2 (stereo not shown) [Compound 21, 8-(1,1-difluoro-5-azaspiro[2.4]heptan-5-yl)-N-(5-(6-ethyl-2,6-diazaspiro[3.3]heptan-2-yl)pyridin-2-yl)pyrido[3,4-d]pyrimidin-2-amine]	> 2000	< 200	< 200	200 to 500	–	–	–	–	–
1-cyclopropyl-3-(6-methyl-2-((1-(methylsulfonyl)piperidin-4-yl)amino)pyrido[3,4-d]pyrimidin-8-yl)cyclobutan-1-ol [Compound 85]	< 200	–	< 200	< 200	–	< 200	–	500 to 2000	500 to 2000
